Experimental data published in ChEMBL document CHEMBL5357034, “Antimicrobial and Anti-inflammatory Cyclic Tetrapeptides from the Co-cultures of Two Marine-Derived Fungi” (2024).
Square brackets hold non-standard residues; d marks the D form. Peptide text beside a SMILES is read from it. NMeA = CN[C@@H](C)C(=O)O

Tests used:
Assay type in all cases: functional
Pseudomonas aeruginosa = test: Antimicrobial activity against Pseudomonas aeruginosa ATCC 27853 assessed as inhibition of microbial growth incubated for 24 hrs by broth microdilution method
Edwardsiella ictaluri = test: Antimicrobial activity against Edwardsiella ictaluri ATCC33202 assessed as inhibition of microbial growth incubated for 24 hrs by broth microdilution method
Staphylococcus aureus [1] = test: Antimicrobial activity against Staphylococcus aureus ATCC 29213 assessed as inhibition of microbial growth incubated for 24 hrs by broth microdilution method
Staphylococcus aureus [2] = test: Antimicrobial activity against methicillin-resistant Staphylococcus aureus ATCC R6101 assessed as inhibition of microbial growth incubated for 24 hrs by broth microdilution method
Staphylococcus aureus [3] = test: Antimicrobial activity against methicillin-resistant Staphylococcus aureus ATCC 33591 assessed as inhibition of microbial growth incubated for 24 hrs by broth microdilution method
Escherichia coli = test: Antimicrobial activity against Escherichia coli ATCC 25922 assessed as inhibition of microbial growth incubated for 24 hrs by broth microdilution method
Bacillus subtilis = test: Antimicrobial activity against Bacillus subtilis ATCC 6633 assessed as inhibition of microbial growth incubated for 24 hrs by broth microdilution method
Edwardsiella tarda [4] = test: Antimicrobial activity against Edwardsiella tarda QDIO-2 assessed as inhibition of microbial growth incubated for 24 hrs by broth microdilution method
Acinetobacter baumannii = test: Antimicrobial activity against Acinetobacter baumannii 2799 assessed as inhibition of microbial growth incubated for 24 hrs by broth microdilution method
Edwardsiella tarda [5] = test: Antimicrobial activity against Edwardsiella tarda ATCC15947 assessed as inhibition of microbial growth incubated for 24 hrs by broth microdilution method
Candida albicans = test: Antimicrobial activity against Candida albicans ATCC 10213 assessed as inhibition of microbial growth incubated for 24 hrs by broth microdilution method
RAW264.7 [6] = test: Anti-inflammatory activity in LPS-induced mouse RAW264.7 cells assessed as inhibition of MCP-1 production at 10 uM preincubated with compound for 24 hrs followed by compound replacement with DMEM media and measured 6 hrs after LPS stimulation by qRT-PCR analysis relative to control
RAW264.7 [7] = test: Anti-inflammatory activity in LPS-induced mouse RAW264.7 cells assessed as inhibition of TNF-alpha production at 10 uM preincubated with compound for 24 hrs followed by compound replacement with DMEM media and measured 6 hrs after LPS stimulation by qRT-PCR analysis relative to control
RAW264.7 [8] = test: Anti-inflammatory activity in LPS-induced mouse RAW264.7 cells assessed as inhibition of IL-6 production at 10 uM preincubated with compound for 24 hrs followed by compound replacement with DMEM media and measured 6 hrs after LPS stimulation by qRT-PCR analysis relative to control

With `CC(C)Cc1cnc(CC(C)C)c(=O)[nH]1` the MIC (Pseudomonas aeruginosa) was over 128 µg/mL, the MIC (Edwardsiella ictaluri) was 64 µg/mL and the MIC (Staphylococcus aureus [1]) was over 128 µg/mL. It also gave an MIC (Staphylococcus aureus [2]) of over 128 µg/mL, an MIC (Staphylococcus aureus [3]) of over 128 µg/mL and an MIC (Escherichia coli) of over 128 µg/mL. It also gave an MIC (Bacillus subtilis) of over 128 µg/mL, an MIC (Edwardsiella tarda [4]) of 128 µg/mL and an MIC (Acinetobacter baumannii) of over 128 µg/mL. The MIC (Edwardsiella tarda [5]) was 128 µg/mL and the MIC (Candida albicans) was over 128 µg/mL.

`CC(C)Cc1ncc([C@@H](O)C(C)C)n(O)c1=O` was tested, and the MIC (Pseudomonas aeruginosa) was over 128 µg/mL, the MIC (Edwardsiella ictaluri) was 64 µg/mL and the MIC (Staphylococcus aureus [1]) was 32 µg/mL. It also gave an MIC (Staphylococcus aureus [2]) of over 128 µg/mL, an MIC (Staphylococcus aureus [3]) of 16 µg/mL and an MIC (Escherichia coli) of over 128 µg/mL. For the same molecule, the MIC (Bacillus subtilis) was 128 µg/mL, the MIC (Edwardsiella tarda [4]) was 128 µg/mL and the MIC (Acinetobacter baumannii) was 128 µg/mL. For the same molecule, the MIC (Edwardsiella tarda [5]) was 128 µg/mL and the MIC (Candida albicans) was 32 µg/mL.

Work on `CC[C@H](C)[C@@H]1NC(=O)[C@H](C)NC(=O)[C@H](Cc2ccc(OC)cc2)NC(=O)[C@H](C)N(C)C1=O` (cyclo(AI[NMeA]Y(Me))) yielded an inhibition at 10 µM (RAW264.7 [6]) of 12%, an inhibition at 10 µM (RAW264.7 [7]) of 6.6% and an inhibition at 10 µM (RAW264.7 [8]) of 67%.

`CC[C@H](C)[C@@H]1NC(=O)[C@H]([C@@H](C)O)NC(=O)[C@H](Cc2ccccc2)NC(=O)[C@H](C)N(C)C1=O` (cyclo(FTI[NMeA])) gave an MIC (Pseudomonas aeruginosa) of over 128 µg/mL, an MIC (Edwardsiella ictaluri) of 128 µg/mL and an MIC (Staphylococcus aureus [1]) of over 128 µg/mL. It also gave an inhibition at 10 µM (RAW264.7 [6]) of 56%, an inhibition at 10 µM (RAW264.7 [7]) of 13% and an MIC (Staphylococcus aureus [2]) of over 128 µg/mL. The MIC (Staphylococcus aureus [3]) was over 128 µg/mL, the MIC (Escherichia coli) was over 128 µg/mL and the MIC (Bacillus subtilis) was over 128 µg/mL. The inhibition at 10 µM (RAW264.7 [8]) was 61%, the MIC (Edwardsiella tarda [4]) was 128 µg/mL and the MIC (Acinetobacter baumannii) was over 128 µg/mL. The MIC (Edwardsiella tarda [5]) was over 128 µg/mL and the MIC (Candida albicans) was over 128 µg/mL.

`CC[C@H](C)[C@@H]1NC(=O)[C@H]([C@@H](C)O)NC(=O)[C@H](Cc2ccc(OC)cc2)NC(=O)[C@@H]2CCCN2C1=O` (cyclo(IPY(Me)T)) gave an MIC (Pseudomonas aeruginosa) of over 128 µg/mL, an MIC (Edwardsiella ictaluri) of over 128 µg/mL and an MIC (Staphylococcus aureus [1]) of over 128 µg/mL. The inhibition at 10 µM (RAW264.7 [6]) was 42%, the inhibition at 10 µM (RAW264.7 [7]) was 16% and the MIC (Staphylococcus aureus [2]) was over 128 µg/mL. It also gave an MIC (Staphylococcus aureus [3]) of over 128 µg/mL, an MIC (Escherichia coli) of over 128 µg/mL and an MIC (Bacillus subtilis) of over 128 µg/mL. For the same molecule, the inhibition at 10 µM (RAW264.7 [8]) was 63%, the MIC (Edwardsiella tarda [4]) was over 128 µg/mL and the MIC (Acinetobacter baumannii) was over 128 µg/mL. It also gave an MIC (Edwardsiella tarda [5]) of over 128 µg/mL and an MIC (Candida albicans) of over 128 µg/mL.

Work on `CC[C@H](C)[C@@H]1NC(=O)[C@H]([C@@H](C)O)NC(=O)[C@H](Cc2ccc(OC)cc2)NC(=O)[C@H](C)N(C)C1=O` (cyclo(I[NMeA]Y(Me)T)) yielded an MIC (Pseudomonas aeruginosa) of over 128 µg/mL, an MIC (Edwardsiella ictaluri) of 64 µg/mL and an MIC (Staphylococcus aureus [1]) of over 128 µg/mL. The inhibition at 10 µM (RAW264.7 [6]) was 44%, the inhibition at 10 µM (RAW264.7 [7]) was 24% and the MIC (Staphylococcus aureus [2]) was over 128 µg/mL. The MIC (Staphylococcus aureus [3]) was over 128 µg/mL, the MIC (Escherichia coli) was over 128 µg/mL and the MIC (Bacillus subtilis) was over 128 µg/mL. For the same molecule, the inhibition at 10 µM (RAW264.7 [8]) was 55%, the MIC (Edwardsiella tarda [4]) was over 128 µg/mL and the MIC (Acinetobacter baumannii) was over 128 µg/mL. For the same molecule, the MIC (Edwardsiella tarda [5]) was 128 µg/mL and the MIC (Candida albicans) was over 128 µg/mL.

Work on `COc1ccc(C[C@@H]2NC(=O)[C@H](C)N(C)C(=O)[C@H](CC(C)C)NC(=O)[C@H]([C@@H](C)O)NC2=O)cc1` (cyclo(L[NMeA]Y(Me)T)) yielded an MIC (Pseudomonas aeruginosa) of over 128 µg/mL, an MIC (Edwardsiella ictaluri) of over 128 µg/mL and an MIC (Staphylococcus aureus [1]) of over 128 µg/mL. The inhibition at 10 µM (RAW264.7 [6]) was 41%, the inhibition at 10 µM (RAW264.7 [7]) was 15% and the MIC (Staphylococcus aureus [2]) was over 128 µg/mL. For the same molecule, the MIC (Staphylococcus aureus [3]) was over 128 µg/mL, the MIC (Escherichia coli) was over 128 µg/mL and the MIC (Bacillus subtilis) was over 128 µg/mL. It also gave an inhibition at 10 µM (RAW264.7 [8]) of 55%, an MIC (Edwardsiella tarda [4]) of over 128 µg/mL and an MIC (Acinetobacter baumannii) of over 128 µg/mL. The MIC (Edwardsiella tarda [5]) was 128 µg/mL and the MIC (Candida albicans) was over 128 µg/mL.

`CO[C@H]1/C=C/O[C@@]2(C)Oc3c(C)c(O)c4c(O)c(c(/C=N/N5CCN(C)CC5)c(O)c4c3C2=O)NC(=O)/C(C)=C\C=C\[C@H](C)[C@H](O)[C@@H](C)[C@@H](O)[C@@H](C)[C@H](OC(C)=O)[C@@H]1C` [RIFAMPIN] showed an MIC (Pseudomonas aeruginosa) of 8 µg/mL, an MIC (Edwardsiella ictaluri) of 8 µg/mL and an MIC (Staphylococcus aureus [1]) of under 0.25 µg/mL. For the same molecule, the MIC (Staphylococcus aureus [2]) was 8 µg/mL, the MIC (Staphylococcus aureus [3]) was under 0.25 µg/mL and the MIC (Escherichia coli) was 4 µg/mL. It also gave an MIC (Bacillus subtilis) of under 0.25 µg/mL, an MIC (Edwardsiella tarda [4]) of 4 µg/mL and an MIC (Acinetobacter baumannii) of 1 µg/mL. The MIC (Edwardsiella tarda [5]) was 2 µg/mL and the MIC (Candida albicans) was under 0.25 µg/mL.

For `CN[C@H](CC(C)C)C(=O)N[C@H]1C(=O)N[C@@H](CC(N)=O)C(=O)N[C@H]2C(=O)N[C@H]3C(=O)N[C@H](C(=O)N[C@H](C(=O)O)c4cc(O)cc(O)c4-c4cc3ccc4O)[C@H](O)c3ccc(c(Cl)c3)Oc3cc2cc(c3O[C@@H]2O[C@H](CO)[C@@H](O)[C@H](O)[C@H]2O[C@H]2C[C@](C)(N)[C@H](O)[C@H](C)O2)Oc2ccc(cc2Cl)[C@H]1O` [VANCOMYCIN], the MIC (Pseudomonas aeruginosa) was over 128 µg/mL, the MIC (Edwardsiella ictaluri) was over 128 µg/mL and the MIC (Staphylococcus aureus [2]) was over 128 µg/mL. It also gave an MIC (Escherichia coli) of 128 µg/mL, an MIC (Bacillus subtilis) of under 0.25 µg/mL and an MIC (Edwardsiella tarda [4]) of over 128 µg/mL. The MIC (Acinetobacter baumannii) was 64 µg/mL, the MIC (Edwardsiella tarda [5]) was over 128 µg/mL and the MIC (Candida albicans) was under 0.25 µg/mL.
